The text below walks through data of patent publication US11827628B2, “Compositions and methods for inhibition of the JAK pathway” (Rigel Pharmaceuticals, Inc., priority 2005, dated 2023).

The subject of one test is Primary human T-cells. As to the kind of experiment: Primary Human T-Cell Proliferation Assay Stimulated with IL-2 (CellTiter-Glo). The format is cell-based. The conditions noted are these: read-out: IC50, Example 42. An outline of the steps: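 Peripheral blood T-cells pre-activated with anti-CD3/anti-CD28 and IL-2 were washed free of IL-2, then cultured with compound plus IL-2 for 72 hours at 37° C, duplicate wells. Viability read as ATP by CellTiter-Glo luminescence; IC50 reported.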
In general terms: ATP-based viability assays read luminescence as a measure of living cells.

For test [1], the system named is up-regulation of ICAM-1 (CD54) by IFNγ in A549 lung epithelial cells. As to the kind of experiment: A549 Epithelial Line Stimulated with IFNγ (ICAM-1 surface expression, FACS). The format is cell-based, human. The conditions noted are these: ICAM-1 expression by FACS, read-out: IC50, Example 43. An outline of the steps: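 A549 cells pre-incubated 1 h with compound (30 μM to 14 nM, 5% FBS, 0.3% DMSO), then stimulated with IFNγ (75 ng/mL) for 24 h. Surface ICAM-1 stained with APC anti-CD54 and read by flow cytometry; geometric mean of live-gated events plotted against concentration for EC50.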
In general terms: Flow cytometry measures light scatter and fluorescence of single cells or particles in a stream.

The mark [2] stands for this setting: primary human T-cells stimulated with IL-2, proliferation.
Setting [3] is: A549 cells stimulated with IFNγ.

Read-outs that look alike come from different tables or passages of the source.

By IC50 is commonly meant the point on the concentration scale where inhibition reaches its midpoint. `CCS(=O)(=O)N1CCc2cc(Nc3nc(Nc4cccc(S(N)(=O)=O)c4)ncc3F)ccc2C1` [VII-14, N2-(3-aminosulfonyl)phenyl-N4-[(N-ethylsulfonyl)-1,2,3,4-tetrahydroisoquinolin-6-yl]-5-fluoro-2,4-pyrimidinediamine]: the values for the IC50 (with Primary human T-cells (setting [2]); in test [1] (setting [3])) were 0.177 µM and 9.93 µM, respectively.
The like results for `CCS(=O)(=O)N1CCc2cc(Nc3nc(Nc4ccc(C)c(S(N)(=O)=O)c4)ncc3F)ccc2C1` [VII-15, N2-(3-aminosulfonyl-4-methyl)phenyl-N4-[(N-ethylsulfonyl)-1,2,3,4-tetrahydroisoquinolin-6-yl]-5-fluoro-2,4-pyrimidinediamine] were, in that order, 0.121 µM and 13.1 µM.
The like results for `CNC(=O)N1CCCc2cc(Nc3nc(Nc4ccc(C)c(S(N)(=O)=O)c4)ncc3F)ccc21` [VII-19, N2-(3-Aminosulfonyl-4-methylphenyl)-5-fluoro-N4-[1-(methylaminocarbonyl)-1,2,3,4-tetrahydroquin-6-yl]-2,4-pyrimidinediamine] were, in that order, 0.514 µM and 12.5 µM.
Turning to `COCCn1ncc2cc(Nc3nc(Nc4cccc(S(N)(=O)=O)c4)ncc3F)ccc21` [VII-23, N2-(3-Aminosulfonylphenyl)-5-fluoro-N4-[1-(2-methoxyethyl)indazolin-5-yl]-2,4-pyrimidinediamine], the concentration for half-maximal inhibition (IC50) in the test on Primary human T-cells (setting [2]) came out at 0.161 µM; in test [1] (setting [3]) it was 61.3 µM.
The like results for `NC1CCOc2ccc(Nc3nc(Nc4cccc(S(N)(=O)=O)c4)ncc3F)cc21` (centres unmarked) [VII-28, N2-(3-Aminosulfonylphenyl)-N4-(chroman-4-amine-6-yl)-5-fluoro-2,4-pyrimidinediamine] were, in that order, 0.709 µM and 16.6 µM.
For `NC1CCOc2ccc(Nc3nc(Nc4ccc(S(N)(=O)=O)cc4)ncc3F)cc21` (centres unmarked) [VII-29, N2-(4-Aminosulfonylphenyl)-N4-(chroman-4-amine-6-yl)-5-fluoro-2,4-pyrimidinediamine], the figures for the IC50 (with Primary human T-cells (setting [2]); in test [1] (setting [3])) were 1.46 µM and 30.5 µM, respectively.
The like results for `N#CCN1C(=O)CSc2ccc(Nc3nc(Nc4cccc(S(N)(=O)=O)c4)ncc3F)cc21` [VII-36, N2-(3-Aminosulphonylphenyl)-5-fluoro-N4-(3-oxo-4-cyanomethyl-benzo[1,4]thiazin-6-yl)-2,4-pyrimidinediamine] were, in that order, 0.119 µM and 82.8 µM.
For `Cc1ccc(Nc2ncc(F)c(Nc3ccc4c(c3)NC(=O)CS4)n2)cc1S(N)(=O)=O` [VII-45, N2-(3-Aminosulphonyl-4-methyl-phenyl)-5-fluoro-N4-(3-oxo-4H-benzo[1,4]thiazin-6-yl)-2,4-pyrimidinediamine], the IC50 was 0.282 µM in the test with Primary human T-cells (setting [2]) and 4.03 µM in test [1] (setting [3]).
The like results for `CN1C(=O)CSc2ccc(Nc3nc(Nc4cccc(S(=O)(=O)N5CCCCC5)c4)ncc3F)cc21` [VII-50, 5-Fluoro-N4-(4-methyl-3-oxo-benz[1,4]thiazin-6-yl)-N2-(3-pipendinosulfonylphenyl)-2,4-pyrimidinediamine] were, in that order, 0.856 µM and 4.42 µM.
Consider `CS(=O)(=O)N1CCc2cc(Nc3nc(Nc4cccc(S(N)(=O)=O)c4)ncc3F)ccc21` [VII-60, N2-(3-Aminosulfonylphenyl)-5-fluoro-N4-[4-(1-methylsulfonyl)indolin-5-yl]-2,4-pyrimidinediamine], for which the figures for the IC50 (in the test with Primary human T-cells (setting [2]); in test [1] (setting [3])) were 0.152 µM and 2.6 µM, respectively.
For the compound “N2-(3-Aminosulfonyl-4-methylphenyl)-5-fluoro-N4-[4-(2-pyridinyl)-3-fluoromethyleneoxyphenyl]-2,4-pyrimidinediamine [Compound I-172]”, the IC50 came to 0.277 µM with Primary human T-cells (primary human T-cell proliferation stimulated with IL-2) and 38.7 µM in test [1] (A549 epithelial line stimulated with IFNγ).
Regarding “N2-[3-Aminosulfonyl-4-(4-methylpiperazine-1-yl)phenyl]-N4-(3-cyanomethylene-1H-indol-6-yl)-5-fluoro-2,4-pyrimidinediamine [IX-17]”, the IC50 stood at 0.815 µM in the test with Primary human T-cells (setting [2]) and 21.9 µM in test [1] (setting [3]).
The like results for “N2-[3-Aminosulfonyl-4-(4-methylpiperazine-1-yl)phenyl]-N4-(3-cyanomethylene-1H-indol-7-yl)-5-fluoro-2,4-pyrimidinediamine [IX-18]” were, in that order, 2.4 µM and 55.2 µM.
